Experimental data: patent publication US11331327B2, “Antibacterial use of halogenated salicylanilides” (UNION therapeutics A/S, priority 2014, dated 2022)
Like-named read-outs stand apart in the source and are kept apart here.

Tested on: S. aureus clinical isolates and S. aureus ATCC 29213
Experiment: MIC assay according to CLSI criteria, Example 2, S. aureus strains
Format: cell-based, Staphylococcus aureus
Conditions: Staphylococcus aureus, read-out: MIC
Method: Strains were conserved in Luria Bertani (LB) Broth (S. aureus) or Brain Heart Infusion (BHI) (S. pyogenes) supplemented with glycerol 15% (v/v) at −80° C., and reactivated by isolation on LB (S. aureus) or BHI (S. pyogenes) agar plates. Strains were cultivated in Mueller Hinton (MH) Broth-cation adjusted (S. aureus) or BHI (S. pyogenes). All strains were cultivated aerobically (microaerobically for S. pyogenes strains) at 37° C.
Bacterial cultures were stopped in their exponential growth phase and plates were inoculated with the approximate concentration of 5×10^5 cells per well. Plates were incubated at 37° C. for 18 hours (S. aureus) or 24 hours (S. pyogenes).

Measured: MIC

C/C(=C\C(=O)OCCCCCCCCC(=O)O)C[C@@H]1OC[C@H](C[C@@H]2O[C@H]2[C@@H](C)[C@H](C)O)[C@@H](O)[C@H]1O [Mupirocin]
0.125 µg/mL: ATCC 29213 / MRSA, strain MRSA 18 | ATCC 29213 / MRSA, strain MRSA 21 | ATCC 29213 / MRSA, strain MRSA 30 | ATCC 29213 / MRSA, strain MRSA 38 | ATCC 29213 / MRSA, strain MRSA 41 | ATCC 29213 / MRSA, strain MRSA 57 | ATCC 29213 / MRSA, strain MRSA 58 | ATCC 29213 / MRSA, strain MRSA 59 | ATCC 29213 / MRSA, strain MRSA 63 | ATCC 29213 / MRSA, strain MRSA 67 | ATCC 29213 / MRSA, strain MRSA 69 | ATCC 29213 / MRSA, strain MRSA 71 | ATCC 29213 / MRSA, strain MRSA 96 | ATCC 29213 / MRSA, strain MRSA 110 | ATCC 29213 / MSSA, strain MSSA 01 | ATCC 29213 / MSSA, strain MSSA 02
0.25 µg/mL: ATCC 29213 / MRSA, strain MRSA 15 | ATCC 29213 / MRSA, strain MRSA 19 | ATCC 29213 / MRSA, strain MRSA 20 | ATCC 29213 / MRSA, strain MRSA 22 | ATCC 29213 / MRSA, strain MRSA 23 | ATCC 29213 / MRSA, strain MRSA 24 | ATCC 29213 / MRSA, strain MRSA 25 | ATCC 29213 / MRSA, strain MRSA 27 | ATCC 29213 / MRSA, strain MRSA 27b | ATCC 29213 / MRSA, strain MRSA 29 | ATCC 29213 / MRSA, strain MRSA 31 | ATCC 29213 / MRSA, strain MRSA 32 | ATCC 29213 / MRSA, strain MRSA 33 | ATCC 29213 / MRSA, strain MRSA 34 | ATCC 29213 / MRSA, strain MRSA 36 | ATCC 29213 / MRSA, strain MRSA 37 | ATCC 29213 / MRSA, strain MRSA 39 | ATCC 29213 / MRSA, strain MRSA 40 | ATCC 29213 / MRSA, strain MRSA 42 | ATCC 29213 / MRSA, strain MRSA 43 | ATCC 29213 / MRSA, strain MRSA 44 | ATCC 29213 / MRSA, strain MRSA 47 | ATCC 29213 / MRSA, strain MRSA 49 | ATCC 29213 / MRSA, strain MRSA 50 | ATCC 29213 / MRSA, strain MRSA 51 | ATCC 29213 / MRSA, strain MRSA 52 | ATCC 29213 / MRSA, strain MRSA 53 | ATCC 29213 / MRSA, strain MRSA 54 | ATCC 29213 / MRSA, strain MRSA 55 | ATCC 29213 / MRSA, strain MRSA 56 | ATCC 29213 / MRSA, strain MRSA 60 | ATCC 29213 / MRSA, strain MRSA 61 | ATCC 29213 / MRSA, strain MRSA 62 | ATCC 29213 / MRSA, strain MRSA 64 | ATCC 29213 / MRSA, strain MRSA 65 | ATCC 29213 / MRSA, strain MRSA 66 | ATCC 29213 / MRSA, strain MRSA 68 | ATCC 29213 / MRSA, strain MRSA 70 | ATCC 29213 / MRSA, strain MRSA 72 | ATCC 29213 / MRSA, strain MRSA 73 | ATCC 29213 / MRSA, strain MRSA 74 | ATCC 29213 / MRSA, strain MRSA 76 | ATCC 29213 / MRSA, strain MRSA 77 | ATCC 29213 / MRSA, strain MRSA 78 | ATCC 29213 / MRSA, strain MRSA 79 | ATCC 29213 / MRSA, strain MRSA 80 | ATCC 29213 / MRSA, strain MRSA 81 | ATCC 29213 / MRSA, strain MRSA 82 | ATCC 29213 / MRSA, strain MRSA 83 | ATCC 29213 / MRSA, strain MRSA 84 | ATCC 29213 / MRSA, strain MRSA 85 | ATCC 29213 / MRSA, strain MRSA 86 | ATCC 29213 / MRSA, strain MRSA 87 | ATCC 29213 / MRSA, strain MRSA 88 | ATCC 29213 / MRSA, strain MRSA 89 | ATCC 29213 / MRSA, strain MRSA 90 | ATCC 29213 / MRSA, strain MRSA 91 | ATCC 29213 / MRSA, strain MRSA 92 | ATCC 29213 / MRSA, strain MRSA 93 | ATCC 29213 / MRSA, strain MRSA 94 | ATCC 29213 / MRSA, strain MRSA 95 | ATCC 29213 / MRSA, strain MRSA 97 | ATCC 29213 / MRSA, strain MRSA 101 | ATCC 29213 / MRSA, strain MRSA 102 | ATCC 29213 / MRSA, strain MRSA 103 | ATCC 29213 / MRSA, strain MRSA 104 | ATCC 29213 / MRSA, strain MRSA 105 | ATCC 29213 / MRSA, strain MRSA 106 | ATCC 29213 / MRSA, strain MRSA 107 | ATCC 29213 / MRSA, strain MRSA 108 | ATCC 29213 / MRSA, strain MRSA 109 | ATCC 29213 / MRSA, strain MRSA 111 | ATCC 29213 / MRSA, strain MRSA 112 | ATCC 29213 / MRSA, strain MRSA 113 | ATCC 29213 / NEWMAN, strain Newman
> 16 µg/mL: ATCC 29213 / MRSA, strain MRSA 16 | ATCC 29213 / MRSA, strain MRSA 17
0.13 µg/mL: ATCC 29213 / MRSA, strain MRSA 45 | ATCC 29213 / MRSA, strain MRSA 46 | ATCC 29213 / MRSA, strain MRSA 48
0.5 µg/mL: ATCC 29213 / MRSA, strain MRSA 26 | ATCC 29213 / MRSA, strain MRSA 28 | ATCC 29213 / MRSA, strain MRSA 35 | ATCC 29213 / MRSA, strain MRSA 75 | ATCC 29213 / MRSA, strain MRSA 98 | ATCC 29213 / MRSA, strain MRSA 99 | ATCC 29213 / MRSA, strain MRSA 100
